This note sets out measurements from patent publication US12139520B2 (priority 2020, dated 2024).

Numbered stars: 1 amine (or outer) side, 2 acyl side, 3 side chain; on linkers, the order of the positions; unused ones are H or OH. Bridge positions count the residues as written; N and C are the ends. Square brackets hold non-standard residues; d marks the D form. Side chains are listed from the residue outwards. Peptide text beside a SMILES is read from it. * marks the point of attachment. C20 diacid = O=C(O)CCCCCCCCCCCCCCCCCCC(=O)*; γGlu = O=C(O)[C@H](CCC(=O)[*:2])N[*:1]; Hyp = O=C(O)[C@@H]1C[C@@H](O)CN1; AEEA = NCCOCCOCC(=O)O

For test [1], the target named is T1, hAMY3 receptor (Homo sapiens, UniProt O60896+P30988).
T1 sequence (P30988 25-474): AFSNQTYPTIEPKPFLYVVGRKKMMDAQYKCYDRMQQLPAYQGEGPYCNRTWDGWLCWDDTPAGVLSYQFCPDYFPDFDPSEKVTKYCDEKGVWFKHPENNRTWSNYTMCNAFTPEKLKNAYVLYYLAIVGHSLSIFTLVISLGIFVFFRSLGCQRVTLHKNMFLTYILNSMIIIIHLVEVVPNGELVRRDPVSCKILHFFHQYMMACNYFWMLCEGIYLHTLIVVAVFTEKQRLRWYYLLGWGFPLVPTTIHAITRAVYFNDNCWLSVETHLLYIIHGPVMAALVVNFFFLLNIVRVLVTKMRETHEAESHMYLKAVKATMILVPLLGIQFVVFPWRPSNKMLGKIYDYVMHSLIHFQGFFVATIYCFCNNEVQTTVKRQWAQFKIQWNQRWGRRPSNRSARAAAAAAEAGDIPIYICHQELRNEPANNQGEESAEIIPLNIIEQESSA
T1 sequence (O60896 24-148 partner): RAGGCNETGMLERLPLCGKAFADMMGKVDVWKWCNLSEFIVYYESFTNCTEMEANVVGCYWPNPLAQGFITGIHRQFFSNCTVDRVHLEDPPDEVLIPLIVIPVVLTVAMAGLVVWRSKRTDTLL
Nature of the test: cAMP assay for in vitro receptor activation, hAMY3-R. Conditions: cAMP assay, hAMY3 receptor; read-out: hAMY3R EC50. Format: cell-based. An outline of the steps:
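Receptor activation was measured as cAMP accumulation in a monoclonal cell line stably overexpressing hAMY3. Stimulation with graded doses lasted 30 min at room temperature in the presence of 0.5 mM IBMX, with human amylin as positive control.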
(In general: Cyclic AMP is a second messenger, typically raised through Gs and lowered through Gi signalling.)

Test [2] has as its target hAM1 receptor (Homo sapiens, UniProt O60895+Q16602). Nature of the test: cAMP assay for in vitro receptor activation, hAM1-R. Format: cell-based. Conditions: cAMP assay, hAM1 receptor; read-out: hAM1R EC50. The protocol: General Protocols for cAMP Assays for Measuring In Vitro Receptor Activation
Cells stably overexpressing the hAM1 receptor were obtained from Ogeda (now Astellas Pharma), sub-cloned and a monoclonal cell-line with an appropriate assay-window was expanded, aliquoted and frozen. An aliquot was thawed and plated in DPBS with 0.05% casein and 0.5 mM IBMX as 8000 cells/well in a 384-well format.

hAM1 receptor, sequence (Q16602 23-461): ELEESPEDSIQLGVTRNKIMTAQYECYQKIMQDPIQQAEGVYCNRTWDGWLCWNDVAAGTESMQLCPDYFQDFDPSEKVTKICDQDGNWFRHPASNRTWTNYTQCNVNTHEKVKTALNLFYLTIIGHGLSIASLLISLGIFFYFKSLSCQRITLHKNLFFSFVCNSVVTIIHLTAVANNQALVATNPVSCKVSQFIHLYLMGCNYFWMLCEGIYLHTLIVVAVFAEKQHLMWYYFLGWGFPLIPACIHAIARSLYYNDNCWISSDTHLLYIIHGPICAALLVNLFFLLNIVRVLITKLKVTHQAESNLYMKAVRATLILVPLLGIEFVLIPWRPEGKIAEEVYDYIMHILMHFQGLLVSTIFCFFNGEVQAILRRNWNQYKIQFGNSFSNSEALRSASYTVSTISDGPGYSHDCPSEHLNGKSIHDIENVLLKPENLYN
hAM1 receptor, sequence (O60895 43-175 partner): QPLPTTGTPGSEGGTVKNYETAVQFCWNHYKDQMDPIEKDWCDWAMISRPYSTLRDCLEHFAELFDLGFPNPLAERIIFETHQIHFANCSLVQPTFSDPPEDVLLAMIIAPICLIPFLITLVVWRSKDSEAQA

Turning to `CC[C@H](C)[C@H](NC(=O)[C@H](CCC(N)=O)NC(=O)[C@H](CC(=O)O)NC(=O)[C@H](C)NC(=O)[C@H](CC(C)C)NC(=O)[C@H](CCCNC(=N)N)NC(=O)[C@H](C)NC(=O)[C@@H](NC(=O)[C@@H](NC(=O)[C@@H]1CSSC[C@H](NC(=O)[C@@H](N)CCCCN)C(=O)N[C@@H](CC(N)=O)C(=O)N[C@@H]([C@@H](C)O)C(=O)N[C@@H](CO)C(=O)N[C@@H]([C@@H](C)O)C(=O)N1)[C@@H](C)O)C(C)C)C(=O)N[C@H](C(=O)N[C@@H](CCC(N)=O)C(=O)N[C@@H](Cc1ccccc1)C(=O)N[C@@H](CO)C(=O)N[C@@H](CC(N)=O)C(=O)N[C@@H](CCCCN)C(=O)N[C@@H](CC(=O)O)C(=O)N[C@@H](CCCCN)C(=O)N[C@@H](C)C(=O)N[C@@H](CCC(N)=O)C(=O)N[C@H](C(=O)N[C@@H](CO)C(=O)N1CCC[C@H]1C(=O)N1CCC[C@H]1C(=O)N[C@H](C(=O)N[C@@H](CCC(=O)O)C(=O)N[C@H](C(=O)NCC(=O)N1CCC[C@H]1C(=O)N[C@@H](CC(N)=O)C(=O)N[C@@H](CO)C(=O)N1C[C@H](O)C[C@H]1C(N)=O)C(C)C)[C@@H](C)O)C(C)C)[C@@H](C)O` [compound 8] (H-KCNTSTCTVARLADQITQFSNKDKAQVSPPTEVGPNS[Hyp]-NH2; disulfide 2-7; N-terminus assumed), the results for the EC50 in test [1] and in test [2] were 0.006 nM and greater than 5000 nM, respectively.

Consider `CC[C@H](C)[C@H](NC(=O)[C@H](CCC(N)=O)NC(=O)[C@H](CC(=O)O)NC(=O)[C@H](C)NC(=O)[C@H](CC(C)C)NC(=O)[C@H](CCCNC(=N)N)NC(=O)[C@H](CC(N)=O)NC(=O)[C@@H](NC(=O)[C@@H](NC(=O)[C@@H]1CSSC[C@H](NC(=O)[C@@H](N)CCCNC(=N)N)C(=O)N[C@@H](CC(N)=O)C(=O)N[C@@H](C)C(=O)N[C@@H](CO)C(=O)N[C@@H]([C@@H](C)O)C(=O)N1)[C@@H](C)O)C(C)C)C(=O)N[C@H](C(=O)N[C@@H](CCC(N)=O)C(=O)N[C@@H](Cc1ccccc1)C(=O)N[C@@H](CO)C(=O)N[C@@H](CC(N)=O)C(=O)N[C@@H](CCCCN)C(=O)N[C@@H](CC(=O)O)C(=O)N[C@@H](CCCCN)C(=O)N[C@@H](C)C(=O)N[C@@H](CCC(N)=O)C(=O)N[C@H](C(=O)N[C@@H](CO)C(=O)N1CCC[C@H]1C(=O)N1CCC[C@H]1C(=O)N[C@H](C(=O)N[C@@H](CCC(=O)O)C(=O)N[C@H](C(=O)NCC(=O)N1CCC[C@H]1C(=O)N[C@@H](CC(N)=O)C(=O)N[C@@H](CO)C(=O)N1C[C@H](O)C[C@H]1C(N)=O)C(C)C)[C@@H](C)O)C(C)C)[C@@H](C)O` [compound 9] (H-RCNASTCTVNRLADQITQFSNKDKAQVSPPTEVGPNS[Hyp]-NH2; disulfide 2-7; N-terminus assumed), for which the figures for the EC50 in test [1] and in test [2] were 0.006 nM and greater than 5000 nM, respectively.

Regarding `CC[C@H](C)[C@H](NC(=O)[C@H](CCC(N)=O)NC(=O)[C@H](Cc1c[nH]cn1)NC(=O)[C@H](C)NC(=O)[C@H](CC(C)C)NC(=O)[C@H](CCCNC(=N)N)NC(=O)[C@H](CCC(N)=O)NC(=O)[C@@H](NC(=O)[C@@H](NC(=O)[C@@H]1CSSC[C@H](NC(=O)[C@H](CCCCN)NC(=O)CC[C@H](NC(=O)CCCCCCCCCCCCCCCCCCC(=O)O)C(=O)O)C(=O)N[C@@H](CC(N)=O)C(=O)N[C@@H]([C@@H](C)O)C(=O)N[C@@H](C)C(=O)N[C@@H]([C@@H](C)O)C(=O)N1)[C@@H](C)O)C(C)C)C(=O)N[C@@H](CC(N)=O)C(=O)N[C@@H](CCC(N)=O)C(=O)N[C@@H](Cc1ccccc1)C(=O)N[C@H](C(=O)N[C@@H](CC(=O)O)C(=O)N[C@@H](CCCCN)C(=O)N[C@@H](CC(=O)O)C(=O)N[C@@H](CCCCN)C(=O)N[C@@H](CC(=O)O)C(=O)N[C@@H](CC(N)=O)C(=O)N[C@H](C(=O)N[C@@H](C)C(=O)N1CCC[C@H]1C(=O)N1CCC[C@H]1C(=O)N[C@H](C(=O)N[C@@H](CC(N)=O)C(=O)N[C@H](C(=O)NCC(=O)N[C@@H](CO)C(=O)N[C@@H](CC(N)=O)C(=O)NCC(=O)N1C[C@H](O)C[C@H]1C(N)=O)C(C)C)[C@@H](C)O)C(C)C)[C@@H](C)O` [compound 11] ({C20 diacid-γGlu}-KCNTATCTVQRLAHQINQFTDKDKDNVAPPTNVGSNG[Hyp]-NH2; disulfide 2-7), the EC50 in test [1] is 0.007 nM; in test [2], greater than 5000 nM.

On to `CC[C@H](C)[C@H](NC(=O)[C@H](CCC(N)=O)NC(=O)[C@H](CCC(=O)O)NC(=O)[C@H](C)NC(=O)[C@H](CC(C)C)NC(=O)[C@H](CCCNC(=N)N)NC(=O)[C@H](CCC(N)=O)NC(=O)[C@@H](NC(=O)[C@@H](NC(=O)[C@@H]1CSSC[C@H](NC(=O)[C@@H](N)CCCCN)C(=O)N[C@@H](CC(N)=O)C(=O)N[C@@H]([C@@H](C)O)C(=O)N[C@@H](C)C(=O)N[C@@H]([C@@H](C)O)C(=O)N1)[C@@H](C)O)C(C)C)C(=O)N[C@@H](Cc1ccc(O)cc1)C(=O)N[C@@H](CCC(N)=O)C(=O)N[C@@H](Cc1ccccc1)C(=O)N[C@H](C(=O)N[C@@H](CC(=O)O)C(=O)N[C@@H](CCCCN)C(=O)N[C@@H](CC(=O)O)C(=O)N[C@@H](CCCCN)C(=O)N[C@@H](CC(=O)O)C(=O)N[C@@H](CC(N)=O)C(=O)N[C@@H](CCCCNC(=O)COCCOCCNC(=O)COCCOCCNC(=O)CC[C@H](NC(=O)CCCCCCCCCCCCCCCCCCC(=O)O)C(=O)O)C(=O)N[C@@H](C)C(=O)N1CCC[C@H]1C(=O)N1CCC[C@H]1C(=O)N[C@H](C(=O)N[C@@H](CC(N)=O)C(=O)N[C@H](C(=O)NCC(=O)N[C@@H](CO)C(=O)N[C@@H](CC(N)=O)C(=O)NCC(=O)N1C[C@H](O)C[C@H]1C(N)=O)C(C)C)[C@@H](C)O)[C@@H](C)O` [compound 12] (H-KCNTATCTVQRLAEQIYQFTDKDKDNK([AEEA-AEEA-γGlu-C20 diacid])APPTNVGSNG[Hyp]-NH2; disulfide 2-7; N-terminus assumed), for which the EC50 in test [1] was 0.007 nM; in test [2], greater than 5000 nM.

On to `CC[C@H](C)[C@H](NC(=O)[C@H](CCC(N)=O)NC(=O)[C@H](CC(=O)O)NC(=O)[C@H](C)NC(=O)[C@H](CC(C)C)NC(=O)[C@H](CCCNC(=N)N)NC(=O)[C@H](C)NC(=O)[C@@H](NC(=O)[C@@H](NC(=O)[C@@H]1CSSC[C@H](NC(=O)[C@@H](N)CCCCN)C(=O)N[C@@H](CC(N)=O)C(=O)N[C@@H]([C@@H](C)O)C(=O)N[C@@H](CO)C(=O)N[C@@H]([C@@H](C)O)C(=O)N1)[C@@H](C)O)C(C)C)C(=O)N[C@H](C(=O)N[C@@H](CCC(N)=O)C(=O)N[C@@H](Cc1ccccc1)C(=O)N[C@@H](CO)C(=O)N[C@@H](CC(=O)O)C(=O)N[C@@H](CCCCN)C(=O)N[C@@H](CC(=O)O)C(=O)N[C@@H](CCCCN)C(=O)N[C@@H](C)C(=O)N[C@@H](CC(N)=O)C(=O)N[C@H](C(=O)N[C@@H](CO)C(=O)N1CCC[C@H]1C(=O)N1CCC[C@H]1C(=O)N[C@H](C(=O)N[C@@H](CCC(=O)O)C(=O)N[C@H](C(=O)NCC(=O)N1CCC[C@H]1C(=O)N[C@@H](CC(N)=O)C(=O)N[C@@H](CO)C(=O)N1C[C@H](O)C[C@H]1C(N)=O)C(C)C)[C@@H](C)O)C(C)C)[C@@H](C)O` [compound 15] (H-KCNTSTCTVARLADQITQFSDKDKANVSPPTEVGPNS[Hyp]-NH2; disulfide 2-7; N-terminus assumed), for which the EC50 in test [1] is 0.007 nM; in test [2], greater than 5000 nM.

One may read the EC50 as the midpoint of the concentration-response curve.
